Laboratory results published in the NIST ThermoML archive (doi:10.1016/j.tca.2006.05.010).
Numbers after ± are expanded uncertainties.

Key:
[1] = refractive index (Na D-line) (dimensionless); conditions: 101.33 kPa, Liquid, Standard Abbe refractometry
[2] = molar heat capacity at constant pressure; conditions: 101.33 kPa, Liquid, Small sample (50 mg) DSC
[3] = 101.33 kPa, Liquid, Vibrating tube method
[4] = molar heat capacity at constant pressure; xn = mol fraction of the nth substance listed; conditions: 308.15 K, 101 kPa, Liquid, Small sample (50 mg) DSC
[5] = excess molar enthalpy (molar enthalpy of mixing); xn = mol fraction of the nth substance listed; conditions: 308.15 K, 101 kPa, Liquid, Flow calorimetry

C1COCO1 [1,3-dioxolane]
Conditions | mass density [kg/m3] | molar heat capacity at constant pressure [J/K/mol] | refractive index
[1], 298.15 K | – | – | 1.3983 ± 0.0004
[1], 308.15 K | – | – | 1.3934 ± 0.0004
[2], 288.15 K | – | 118.8 ± 1.8 | –
[2], 293.15 K | – | 120.3 ± 1.9 | –
[2], 298.15 K | – | 121.7 ± 1.9 | –
[2], 303.15 K | – | 123.3 ± 1.9 | –
[2], 308.15 K | – | 124.4 ± 1.9 | –
[2], 313.15 K | – | 125.3 ± 1.9 | –
[2], 318.15 K | – | 126.8 ± 2 | –
[2], 323.15 K | – | 128.1 ± 2 | –
[2], 328.15 K | – | 129.5 ± 2 | –
[3], 298.15 K | 1058.79 ± 0.13 | – | –
[3], 308.15 K | 1046.4 ± 0.12 | – | –

C1COCCO1 [1,4-dioxane]
Conditions | mass density [kg/m3] | molar heat capacity at constant pressure [J/K/mol] | refractive index
[1], 298.15 K | – | – | 1.4202 ± 0.0004
[1], 308.15 K | – | – | 1.4154 ± 0.0004
[2], 288.15 K | – | 146.7 ± 2.3 | –
[2], 293.15 K | – | 150 ± 2.3 | –
[2], 298.15 K | – | 151 ± 2.3 | –
[2], 303.15 K | – | 152.1 ± 2.4 | –
[2], 308.15 K | – | 153.7 ± 2.4 | –
[2], 313.15 K | – | 155.3 ± 2.4 | –
[2], 318.15 K | – | 156.5 ± 2.4 | –
[2], 323.15 K | – | 158.4 ± 2.5 | –
[2], 328.15 K | – | 160.2 ± 2.5 | –
[2], 333.15 K | – | 160.4 ± 2.5 | –
[3], 298.15 K | 1027.96 ± 0.12 | – | –
[3], 308.15 K | 1016.99 ± 0.11 | – | –

C1CCOC1 [tetrahydrofuran]
Conditions | mass density, [3] [kg/m3] | molar heat capacity at constant pressure, [2] [J/K/mol] | refractive index, [1]
288.15 K | – | 121.1 ± 1.9 | –
293.15 K | – | 123.8 ± 1.9 | –
298.15 K | 881.9 ± 0.11 | 126.4 ± 2 | 1.4048 ± 0.0004
303.15 K | – | 128.5 ± 2 | –
308.15 K | 870.99 ± 0.12 | 131.4 ± 2 | 1.4002 ± 0.0004
313.15 K | – | 133.2 ± 2.1 | –
318.15 K | – | 135.2 ± 2.1 | –
323.15 K | – | 136.6 ± 2.1 | –

C1COCO1 [1,3-dioxolane] + C[S+](C)[O-]
Conditions | excess molar enthalpy [kcal/mol] | molar heat capacity at constant pressure [J/K/mol]
[4], x2 = 0.0532 | – | 125.2 ± 1.9
[4], x2 = 0.1036 | – | 126.2 ± 2
[4], x2 = 0.1897 | – | 128.2 ± 2
[4], x2 = 0.3044 | – | 131.3 ± 2
[4], x2 = 0.3922 | – | 133.9 ± 2.1
[4], x2 = 0.5058 | – | 137.3 ± 2.1
[4], x2 = 0.5455 | – | 138.5 ± 2.1
[4], x2 = 0.5936 | – | 139.9 ± 2.2
[4], x2 = 0.7053 | – | 143.4 ± 2.2
[4], x2 = 0.781 | – | 145.9 ± 2.3
[4], x2 = 0.9015 | – | 150.3 ± 2.3
[4], x2 = 0.9431 | – | 152 ± 2.4
[5], x2 = 0.0394 | 0.0146 ± 0.000239 | –
[5], x2 = 0.0757 | 0.0256 ± 0.000478 | –
[5], x2 = 0.1095 | 0.0335 ± 0.000478 | –
[5], x2 = 0.1408 | 0.0409 ± 0.000717 | –
[5], x2 = 0.1974 | 0.0478 ± 0.000717 | –
[5], x2 = 0.2469 | 0.054 ± 0.000717 | –
[5], x2 = 0.3297 | 0.0598 ± 0.000956 | –
[5], x2 = 0.3959 | 0.0629 ± 0.000956 | –
[5], x2 = 0.4959 | 0.0648 ± 0.000956 | –
[5], x2 = 0.5961 | 0.0631 ± 0.000956 | –
[5], x2 = 0.663 | 0.0609 ± 0.000956 | –
[5], x2 = 0.7469 | 0.0562 ± 0.000717 | –
[5], x2 = 0.7973 | 0.0519 ± 0.000717 | –
[5], x2 = 0.8551 | 0.0428 ± 0.000717 | –
[5], x2 = 0.8872 | 0.0354 ± 0.000478 | –
[5], x2 = 0.9219 | 0.0268 ± 0.000478 | –
[5], x2 = 0.9594 | 0.0155 ± 0.000239 | –
